Here are results for six compounds from patent US20140329863A1 (priority 2011, published 2014).

In brackets after ≈: the same amount, converted by molar mass. Like-named read-outs stand apart in the source and are kept apart here.

A short description of series [1]: Multiple-dose (three-day) pharmacokinetic studies in FVB mice, drug in liquid diet. It is filed as in vivo, mouse. The following applies: FVB, mouse, oral, 3 days in liquid diet, 40, 80, 130, 210 mg/kg/day. How it is done: Aminothiazole analog (e.g., 4.5 g of 27) was added to 15 mL of pure PEG400, vortexed and sonicated to ensure dissolution, then stored at −4° C. until needed. This highly concentrated PEG400 solution was subsequently diluted to final dosing concentrations, where the volume added was composed of homogenized solid rodent feed, cocoa (taste masking agent), and water. Wild-type FVB mice weigh ˜25 gm and typically drink 20 mL of liquid diet per day, allowing an estimate of daily drug consumption. A single dosing cohort consisted of three mice in a shared cage and liquid diet was provided at the start of the study in sufficient volume to last for the entire three-day trial (˜200 mL). At the end of the three-day dosing period, animals were euthanized by CO2, followed by collection of plasma (cardiac puncture) and removal of whole brain. Heparinized blood was centrifuged to separate plasma and both plasma and brain samples were stored at −80° C. prior to analysis. Plasma samples were prepared for analysis by precipitating proteins and reconstituting the remaining fraction with HPLC mobile phase. Brain samples were typically prepared by four-fold dilution with water after weighing, then homogenized using bead-beater or Polytron™ resulting in a highly concentrated solution that was further diluted with mobile phase as appropriate in preparation for bioanalytical analysis using LC-MS. Analysis was by LC-MS (Shimadzu dual-HPLC pumps, C18 analytical column, with detection using an Applied Biosystems API-4000 triple quadrupole mass spectrometer).
Ten compounds were selected from among the 34 2-AMTs for three-day multiple-dose PK studies at PO doses ranging from 40-210 mg/kg. Selection was based on diversity in potency, chemical structure, and a range of physicochemical properties. We used a liquid diet to facilitate easy drug administration, as well as serve as the daily source of all water and food. This approach was chosen because the mouse bioassay studies that would be used to assess drug effects on survival would be expected to run for 110 to 400 days, or more; gavage dosing for such a long period is not feasible and more stressful to mice. For the multiple-dose PK studies, 4.5 g of the 2-AMT analogs was added to 15 mL of pure PEG400, vortexed and sonicated to ensure dissolution, then stored at −4° C. until needed. This highly concentrated PEG400 solution was subsequently diluted to final dosing concentrations and added to the rodent liquid diet, cocoa (taste-masking agent), and water.
Wild-type FVB mice weigh ˜25 g and typically drink 20 mL of liquid diet per day, allowing an estimate of daily drug consumption. A single dosing cohort consisted of three mice in a shared cage and liquid diet was provided at the start of the study in sufficient volume (˜200 mL) to last for the entire three-day period. At the end of the dosing period, animals were euthanized by CO2, followed by collection of plasma (cardiac puncture) and removal of whole brain. Samples were processed and stored as described above for the 10 mg/kg single-dose studies.
Plasma and brain homogenate samples were extracted using a protein-precipitation method and analyzed by specific LC/MS/MS methods developed for each compound dosed in vivo. The analytical method accuracy and precision were monitored by analyzing quality control (QC) samples that were prepared by the same methods as the plasma or brain homogenate samples. The brain and plasma concentration data were used to calculate the maximal concentration (Cmax), area under the concentration-time curve (AUClast), and absolute bioavailability (% F) by noncompartmental analysis with sparse sampling performed using Phoenix WinNonlin 6.1 software (Pharsight, Mountain View, Calif.).

Series [2] deals with PrP^Sc in dividing ScN2a-cl3 cells. It is filed as cell-based, mouse.
Series [3] in a line: Multidose (three-day) pharmacokinetics in liquid diet in FVB mice. The following applies: FVB, mouse, in vivo.
Series [4] can be described thus: Hepatic microsomal stability, human. The conditions noted are these: for half-life at 1 μM: human, pH 7.4.
Series [5] can be described thus: Hepatic microsomal stability, rat.
Series [6] can be described thus: Hepatic microsomal stability, mouse. The following applies: for half-life at 1 μM: CD-1, mouse, pH 7.4.
The conditions of series [7]: "rat human hepatic microsomes", NADPH with UDPGA or PBS.
The next series relates to PrP^C in IMR32 cells. Type of series: cell-based, human.
For a further series, the system named is PrP^C in T98G cells. It is filed as cell-based, human.
For a further series, the system named is T98G cells. Kind of series: cells. It is filed as cell-based, human. The conditions noted are these: calcein, T98G cells.
The subject of another series is IMR32 cells. Type of series: cell-based, human.
Setting [8] is: brain, read-out: brain concentration.
Setting [9] is: plasma, read-out: plasma concentration.
The mark [10] stands for this setting: cell culture media, plasma or biological fluid.
Setting [11] is: 40 mg/kg, Plasma Concentration (Css), three-day dosing in liquid diet, plasma.
Where [12] appears, read: 80 mg/kg, Brain Concentration (Css), three-day dosing in liquid diet, brain.
[13] abbreviates: 80 mg/kg, Plasma Concentration (Css), three-day dosing in liquid diet, plasma.
Where [14] appears, read: 130 mg/kg, Brain Concentration (Css), three-day dosing in liquid diet, brain.
[15] abbreviates: 130 mg/kg, Plasma Concentration (Css), three-day dosing in liquid diet, plasma.
Setting [16] is: 210 mg/kg, Brain Concentration (Css), three-day dosing in liquid diet, brain.
Setting [17] is: 210 mg/kg, Plasma Concentration (Css), three-day dosing in liquid diet, plasma.
The mark [18] stands for this setting: Brain and plasma concentrations, 40, 80, 130 and 210 mg/kg/day for 3 days.

`c1ccc2cc(Nc3nc(-c4cc5ccccc5o4)cs3)ncc2c1` [IND91, (4-Benzofuran-2-yl-thiazol-2-yl)-isoquinolin-3-yl-amine]: the concentration at 3 days was at most 1000 nM in series [1] (setting [8]); at most 1000 nM in [1] (setting [9]); 260 ± 130 nM in series [3] (setting [11]); 190 ± 90 nM in [3] (setting [12]); 1550 ± 360 nM in [3] (setting [13]); 260 ± 120 nM in [3] (setting [14]). The concentration at 3 days in [3] (setting [15]) is 1740 ± 310 nM; in series [3] (setting [16]), 280 ± 40 nM; in [3] (setting [17]), 3060 ± 560 nM; in series [3] (setting [18]) it was at most 1000 nM. Also, the solubility in the series “physchem” (setting [10]) was determined as 151 µM (≈ 51.9 µg/mL). Moreover, the EC50 is 923 nM in [2] (AMT analogs tested for potency) and 923 nM in series [2] (Table 29, 2-AMT analogs tested for potency, usually n = 3 or more).
As for `COc1ccc(-c2csc(Nc3cc4ccccc4cn3)n2)cc1OC` [IND46, [4-(3,4-Dimethoxy-phenyl)-thiazol-2-yl]-isoquinolin-3-yl-amine], where the note is “fasted-state simulated intestinal fluid”, the “solubility in FaSSIF (in words)” value is “lower solubility”. Besides, the “solubility at pH 2.0 (in words)” value (pH 2 (HCl) buffer) is given as “lower solubility”. For the same compound, the concentration at 3 days in series [1] (setting [8]) is at most 1000 nM; in series [1] (setting [9]) it was at most 1000 nM; in series [3] (40 mg/kg, Brain Concentration (Css), three-day dosing in liquid diet, brain), 30 ± 30 nM; in [3] (setting [11]), 50 ± 20 nM; in [3] (setting [12]) it was 60 ± 70 nM; in series [3] (setting [13]) it was 60 ± 30 nM. Further, the concentration at 3 days in series [3] (setting [14]) is 140 ± 40 nM; in [3] (setting [15]) it was 80 ± 40 nM; in series [3] (setting [16]), 320 ± 110 nM; in series [3] (setting [17]) it was 140 ± 30 nM; in series [3] (setting [18]) it was at most 1000 nM. In addition, the solubility in the series “physchem” (FaSSIF) is 5 µM (≈ 1.82 µg/mL); in the series “physchem” (setting [10]), 174 µM (≈ 63.2 µg/mL); in “physchem” (pH 2 (HCl) buffer, pH 2, simulated gastric fluid), under 1 µM; in the series “physchem” (pH 7.4 (phosphate) buffer, pH 7.4, aqueous buffer), under 1 µM. Moreover, the “% remaining after a 60-min incubation, Human” value in series [4] (human liver microsomes, 60-min incubation) came to 83%. Besides, the half-life at 1 μM in [4] (human liver microsomes) is over 60 min; in series [4] (liver microsomes), over 60 min; in series [5] (Sprague-Dawley, rat, […], pH 7.4), over 60 min; in series [6] (liver microsomes), 75 min; in [6] (mouse liver microsomes), over 60 min. Besides, the “% remaining after a 60-min incubation, Rat” value in series [5] ([…], 60-min incubation) is 61%. Besides, in series [5] (rat microsomes, * extrapolated), the “t1/2 Rat (extrapolated)” value is 83* min. Moreover, the “% remaining after a 60-min incubation, Mouse” value in [6] (mouse liver microsomes, 60-min incubation) is 58%.
In the case of `Cc1ncc2n1-c1ccc(Cl)cc1C(c1ccccc1F)=NC2` [Midazolam, reference compound], in [7], the “T1/2, control incubations” value amounted to 11 min.
Consider `OCCNC1CCCc2c1[nH]c1ccc(Br)cc21` (stereo not shown) [IND-0015066], for which the “% Inhibition: SPC (IMR32)” value in the series on PrP^C in IMR32 cells is given as “MW: 309.2 % Inhibition: SPC (IMR32): 45 Calcein: 2 SPC (T98G): −11 Calcein: −27”. Moreover, the “% Inhibition: SPC (T98G)” value in the series on PrP^C in T98G cells is “MW: 309.2 % Inhibition: SPC (IMR32): 45 Calcein: 2 SPC (T98G): −11 Calcein: −27”. Further, in the series with T98G cells, the “% Inhibition: Calcein (T98G)” value is on record as −27%. For the same compound, in the series on IMR32 cells, the “% Inhibition: Calcein (IMR32)” value is listed as 2%.
Take `O=[N+]([O-])c1ccc(O)cc1` [4-Nitrophenol, reference compound]: the “T1/2, control incubations” value in [7] is reported as 20 min.
For `CCS(=O)(=O)c1ncc(Cl)c(C(=O)Nc2ccccc2C)n1` [IND-0081396], the “% Inhibition: SPC (IMR32)” value in the series with PrP^C in IMR32 cells was “MW: 339.8 % Inhibition: SPC (IMR32): 91 Calcein: 15 SPC (T98G): −5 Calcein: −8”. Moreover, the “% Inhibition: SPC (T98G)” value with PrP^C in T98G cells is listed as “MW: 339.8 % Inhibition: SPC (IMR32): 91 Calcein: 15 SPC (T98G): −5 Calcein: −8”. The “% Inhibition: Calcein (T98G)” value in the series on T98G cells is reported as −8%. The “% Inhibition: Calcein (IMR32)” value in the series on IMR32 cells is 15%.
